Source: patent US11744863B2, “Process for preparing a pooled human platelet lysate, pooled human platelet lysate and its use for treating neurological disorders” (priority 2017, dated 2023)

Test: Body weight evolution of treated mice
Format: in vivo
Method: The mice enrolled were FVB-Tg(Sod1*G86R)M1Jwg/J mice from JAX laboratories. Animals were group-housed (10 per cage) in a temperature-controlled room (22±2° C.) with a 12/12-hour light/dark cycle. Food and water were feed ad-libitum. […] Breeding was realized (since 2013 may) in SOPF facility and genotyping is performed by qPCR (from tail biopsy). Animal are identified with earrings.
Mice were handled and weighted at the age of 60 days. Canula implantation in intra cerebro-ventricular (ICV) by stereotaxie start at this date and mice are acclimated during 1 week.
(Gurney and al, Neurology, 1998). Then they were evaluated, twice a week (i.e. body weight and neuroscore), from the age of 67 days to their death.
Two different treatments are performed from 75 days to death: • HT_pHPL prepared as described in example 1 and at 1 g/L, pH 7.4 versus vehicle. The dose of HT_pHPL administrated by intermittent ICV was 4 μL, three times a week at rate of 0.5 μL/min. […]

Nc1nc2ccc(OC(F)(F)F)cc2s1 [Riluzole]
day of body weight decrease (Tg mice FVB-Tg(Sod1*G86R)): 88 days | effect on body weight evolution (WT mice): no effect
